Data published in patent US20240041825A1, “SAROGLITAZAR AND MYRISTIC ACID FOR USE IN THE TREATMENT OF FOCAL SEGMENTAL GLOMERULOSCLEROSIS (FSGS)” (Delta 4 GmbH, priority 2020, published 2024).

System: Adriamycin-induced FSGS in BALB/c mice
Experiment: Adriamycin induced nephropathy mouse model of FSGS (UPCR, UACR, histology)
Format: in vivo
Conditions: Experiment 1, FIG. 5; chow with 25 mg/kg saroglitazar and/or 625 mg/kg myristic acid from day 2
Excerpt: For biological testing of the shortlisted compounds, we chose accepted mouse models of FSGS such as the adriamycin induced nephropathy or miR-193a-overexpressing mice which suffer from FSGS due to suppression of Wilms' tumor 1 (WT1) gene (Gebeshuber et al., 2013). All animal experiments and handling were in accordance with the Austrian law for protection of animals and approved by the animal ethics committee of the Austrian ministry for science and research.
Adriamycin-dependent nephropathy (active compound: doxorubicin) was induced by tail vein injection accepted doses of approx. 9 mg/kg mouse in 10 weeks old BALB/c mice. Control mice were injected with 0.9% saline. At least 6 mice were analyzed per group. Mice were monitored daily for signs of pain, altered movement, or reduced food uptake and sacrificed by cervical dislocation. […]
Urinary albumin levels were assessed by ELISA, urinary total protein and urinary creatinine levels were measured on the Roche Cobas system, using routine laboratory kits. Urinary protein/creatinine (UPCR) ratio and urinary albumin/creatinine ratio (UACR) were assessed at different time points. Weight and physical fitness scores were monitored on a daily basis. […]
Spot urine was collected every week and Creatinine and protein levels were measured.
Urinary albumin was measured by ELISA. […]

Row | SMILES | effect on proteinuria (UPCR) versus control, in words
1 | CCO[C@@H](Cc1ccc(OCCn2c(C)ccc2-c2ccc(SC)cc2)cc1)C(=O)O [saroglitazar] | able to ameliorate proteinuria to a certain extent
2 | CCCCCCCCCCCCCC(=O)O [Myristic acid] | did not reduce UPCR
